# Measurements published in US20090156530A1, “Norepinepherine Transporter Mutants and Uses Thereof” (priority 2007, published 2009).
# How the values were obtained:
# NET [1] = molecular target: T1, NET (Mus musculus, UniProt O55192); assay: NE transport assay in cortical synaptosomes; format: biochemical; conditions: for NE transport in KRH/Ca^2+ after drug treatment: 0.1-1 μM BIM, 5 μM KN93 or 10 μM W7, 15 min at 37° C.; for Effect on reduction in NET activity on switch from KRH/Ca^2+ to KRH/EGTA / Effect on elevation in NET activity triggered by addition of Ca^2+: pre-incubation with drug; for Effect on elevation in NET activity triggered by addition of Ca^2+: KRH/EGTA to KRH/Ca^2+
# T1 construct: The pellets were collected as synaptosomes; from tissue; host or cells: mouse (C57/B16) brain cortex synaptosomes
# Protocol: Cell culture, transfection of cDNA or siRNA, generation of stable cell lines, preparation of cortical synaptosomes. CHO cells were maintained in DMEM/10% fetal bovine serum (FBS), 2 mM L-glutamine (L-Glu), 100 IU/ml penicillin, 100 μg/ml streptomycin (pen/strep). […]. The stable clones were selected using hygromycin B ([…], Invitrogen) and maintained in Ham's F12/10% FBS/L-Glu/pen/strep supplemented with Zeocin […] (Invitrogen). CAD-NET cells were generated by stably transfecting HA-NET in pcDNA3 into CAD cells and maintained in DMEM/F12/8% FBS/L-Glu/pen/strep/200 μg/ml of G418 (Mediatech). TransIT-LT1 transfection reagent (Mirus) was used for all transfections. All cells were plated on poly-D-lysine coated plates and incubated for 48 hrs for cDNA transfection and for 48 to 72 hrs for siRNA transfection prior to assays. For synaptosomal preparations, brain cortex was dissected from mice (C57/B16, Harlan) and homogenized in 10 mM HEPES, 0.32 M Sucrose, pH 7.4 using a Teflon pestle/homogenizer. Homogenates were centrifuged at 1,000 g, 5 min at 4° C., and then the supernatant were re-centrifuged at 16,000 g, 20 min at 4° C. The pellets were collected as synaptosomes.
# Assay buffers, transport assays, Ca^2+ imaging. NE transport assays on synaptosomes (50-100 μg/assay reaction) or cells were described previously (Sung et al., 2003). Uptake assay was carried out in KRH/Ca^2+ (mM: 120 NaCl, 4.7 KCl, 1.2 KH2PO4, 10 HEPES, 1.2 MgSO4, 2.2 CaCl2, pH 7.4,) with 0.1 mM pargylnine, ascorbic acid, tropolone, and 1.8 mg/ml glucose, otherwise mentioned. KRH/EGTA is KRH with 0.2 mM EGTA and without CaCl2. When KRH/EGTA was used, KRH/Ca^2+ for the parallel experiment contained 0.2 mM EGTA as well. Uptake assays were initiated by addition of [^3H]-NE (1-[7,8-^3H] noradrenaline, Amersham Pharmacia) at 50 nM final concentration. For kinetics assays, 50, 100, 200 nM of [^3H]-NE, 400, 600, 800, 1,000, 1,200, 1,500 nM of 20% [^3H]-NE and 80% of unlabeled NE (Sigma) were used. Nonspecific uptake was defined using 1-10 μM desipramine. All assays were carried out at 37° C. for 10 min in triplicates. Ca^2+ imaging was performed as described previously (Apparsundaram et al., 2001). CHO cells were pre-loaded with […] fura-2/acetoxymethyl ester (fura-2/AM, Molecular Probe) and superfused with KRH/EGTA and 1 μM thapsigargin for 10 min. The medium was replaced with KRH/Ca^2+ or KRH/EGTA before measurement of intracellular Ca^2+. All experiments derive from at least 3 independent data and mean values were evaluated using a two-tailed Student's t-test or a one-way ANOVA, followed by Tukey's test, with p<0.05 considered significant (*). Data were analyzed using GraphPad Prism 4.
# Protocols for restoration and depletion of Ca^2+ For uptake assay, synaptosomes were pre-incubated with drugs in KRH/Ca^2+. For increase of Ca^2+, synaptosomes were re-suspended in KRH/EGTA, transferred to fresh KRH/EGTA (EGTA to EGTA) or KRH/Ca^2+ (EGTA to Ca^2+), and incubated at 37° C. for 5 min prior to the addition of radiolabeled NE. NE uptake activity of synaptosomes in KRH/Ca^2+ was compared to the activity of synaptosomes in KRH/EGTA. For reduction of Ca^2+, synaptosomes were first resuspended in KRH/Ca^2+, divided into 2 aliquots, replaced with fresh KRH/Ca^2+ (Ca^2+ to Ca^2+) or KRH/EGTA (Ca^2+ to EGTA), and incubated at 37° C. for 5 min prior to the addition of radiolabeled NE. NE uptake activity of synaptosomes in KRH/EGTA was compared to the activity of synaptosomes in KRH/Ca^2+. Control cells were treated the same way except use of complete media with vehicle. Restoration of Ca^2+ for surface biotinylation was carried out by incubating cells in KRH/EGTA with 0.1-1 μM thapsigargin for 10 min at 37° C. to deplete Ca^2+. Cells were washed once with KRH/EGTA, replaced with KRH/EGTA or KRH/Ca^2+, and incubated for 1 min at RT to 5 min at 37° C. prior to biotinylation. […]
# NET [2] = assay: Whole cell patch clamp recording of NET currents in SCG neurons; format: cell-based, rat; conditions: 200 μM CdCl2, 5 μM KN93 15 min, 2 μM STO609 20 min
# Protocol: Whole Cell Patch Clamp Recording of NET currents. Patch clamp experiments were performed using an amplifier Axopatch 200B with a low-pass filter set at 1 kHz. Quartz patch pipettes with 5-7 MΩ resistance were pulled by a programmable puller (model P-2000, Sutter Instruments Novato, Calif.) and filled with the internal solution containing (in mM): 120 KCl, 2 MgCl2, 10 HEPES, 2 MgATP, 30 dextrose and adjusted to pH 7.35. SCG neurons were washed twice with a control solution containing mMs 130 NaCl, 5 CaCl2, 0.5 MgCl2, 1.3 KCl, 10 HEPES, 34 dextrose adjusted to pH 7.35 before experiments. NET-mediated current was defined as the current recorded in control condition minus the current recorded in presence of 5 μM desipramine. Neurons were clamp at −50 mV and the NET-mediated current was recorded by stepping the membrane voltage to −120 mV for 500 ms before and after a 2 sec depolarizing step at −10 mV. NET-mediated current was studied in the control condition, in presence of 200 μM CdCl2, after 15 min preincubation with 5 μM KN93 and after 20 min preincubation with 2 μM STO609.
# NET [3] = assay: NE transport assay in CAD-NET cells; format: cell-based, human; conditions: KRH/Ca^2+
# Protocol: Uptake assay was carried out in KRH/Ca^2+ (mM: 120 NaCl, 4.7 KCl, 1.2 KH2PO4, 10 HEPES, 1.2 MgSO4, 2.2 CaCl2, pH 7.4,) with 0.1 mM pargylnine, ascorbic acid, tropolone, and 1.8 mg/ml glucose, otherwise mentioned. KRH/EGTA is KRH with 0.2 mM EGTA and without CaCl2. When KRH/EGTA was used, KRH/Ca^2+ for the parallel experiment contained 0.2 mM EGTA as well. […] Nonspecific uptake was defined using 1-10 μM desipramine. All assays were carried out at 37° C. for 10 min in triplicates. […] All experiments derive from at least 3 independent data and mean values were evaluated using a two-tailed Student's t-test or a one-way ANOVA, followed by Tukey's test, with p<0.05 considered significant (*).
# human NET [4] = assay: Surface biotinylation of HA-NET in transiently transfected CHO cells; format: cell-based; conditions: for Effect on Ca^2+-depletion elicited reduction of NET surface density / Effect on Ca^2+-stimulated elevation of NET surface density: 5 μM KN93 30 min or 5 μM STO-609 1 hour; for Effect on Ca^2+-stimulated elevation of NET surface density: KRH/EGTA to KRH/Ca^2+; for Change of transporter surface density in response to Ca^2+ manipulations (addition or depletion): HA-tagged NET mutants in CHO cells
# NET [5] = assay: Surface NET immunolabeling in cultured SCG neurons on high K+ depolarization; format: cell-based, rat; conditions: SCG cultures, high potassium buffer, preincubated with drug
# Protocol: Primary neuronal culture, immunohistochemistry, electrophysiology. […] Surface-labeling of NET has been preformed by staining non-fixed SCG culture with anti-NET sera 43408 as described in (Savchenko et al., 2003). For detection of plasma membrane changes+/−depolarization, SCG neurons were preincubated with normal medium (2.5 mM K+) or in 40 mM or 90 mM K^+ for 15 min followed by incubation with NET 43408 antibody for 1 hr at RT in the absence of detergent. Cells were washed and fixed with 3% p-formaldehyde for 10 min prior to visualization of NET labeling using Cy3-conjugated anti-rabbit antibodies. Specimens from multiple fields were examined with a Zeiss LSM 510 Meta imaging system equipped with internal He/Ne and external Ar/Kr lasers. Images were collected were averaged across multiple fields of replicate experiments (n=3), pseudocolored for presentation, and pixel intensity calculated over processes immunopositive by double-staining for tubulin immunoreactivity in Metamorph.
# human NET [6] = assay: NE transport assay in transiently transfected CHO cells; format: cell-based
# Target sequence in this assay (P23975 48-617 limits assumed): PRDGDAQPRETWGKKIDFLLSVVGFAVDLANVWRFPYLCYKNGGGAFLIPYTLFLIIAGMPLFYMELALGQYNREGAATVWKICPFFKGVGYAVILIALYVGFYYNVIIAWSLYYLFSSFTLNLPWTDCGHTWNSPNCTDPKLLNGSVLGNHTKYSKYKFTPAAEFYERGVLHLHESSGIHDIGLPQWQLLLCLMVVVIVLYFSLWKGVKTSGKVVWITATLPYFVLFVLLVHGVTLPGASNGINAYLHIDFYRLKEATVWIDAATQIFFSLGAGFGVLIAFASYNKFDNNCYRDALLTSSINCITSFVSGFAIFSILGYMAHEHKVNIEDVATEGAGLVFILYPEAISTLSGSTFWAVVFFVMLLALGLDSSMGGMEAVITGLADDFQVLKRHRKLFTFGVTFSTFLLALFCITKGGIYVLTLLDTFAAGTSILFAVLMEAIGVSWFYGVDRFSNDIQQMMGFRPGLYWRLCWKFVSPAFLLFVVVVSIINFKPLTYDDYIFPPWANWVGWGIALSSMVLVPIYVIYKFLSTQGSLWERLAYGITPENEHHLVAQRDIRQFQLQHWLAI
# human NET [7] = assay: [32P] metabolic labeling and immunoprecipitation of NET in stable CHO cells; format: cell-based; conditions: KRH/EGTA to KRH/Ca^2+ for 5 min
# Protocol: Cell culture, transfection of cDNA or siRNA, generation of stable cell lines, preparation of cortical synaptosomes. CHO cells were maintained in DMEM/10% fetal bovine serum (FBS), 2 mM L-glutamine (L-Glu), 100 IU/ml penicillin, 100 μg/ml streptomycin (pen/strep). CHO-NET or CHO-NET T30A cells were generated by stably transfecting HA-NET or HA-NET T30A in pcDNA5/FRT (Invitrogen) into CHO-Flip-In cells (Invitrogen). The stable clones were selected using hygromycin B ([…], Invitrogen) and maintained in Ham's F12/10% FBS/L-Glu/pen/strep supplemented with Zeocin […] (Invitrogen). CAD-NET cells were generated by stably transfecting HA-NET in pcDNA3 into CAD cells and maintained in DMEM/F12/8% FBS/L-Glu/pen/strep/200 μg/ml of G418 (Mediatech). TransIT-LT1 transfection reagent (Mirus) was used for all transfections. All cells were plated on poly-D-lysine coated plates and incubated for 48 hrs for cDNA transfection and for 48 to 72 hrs for siRNA transfection prior to assays. […]
# Biochemical analysis and phosphorylation. […] Phosphorylated bands were captured via Phosphoimager (Typhoon 9400, Molecular Dynamics/GE Healthcare Life Sciences) and analyzed using ImageQuant 5.2 (Molecular Dynamics). […] Exposed films of immunoblots were scanned using an Agfa Duoscan T1200 and the captured images processed in Adobe® Photoshop® and quantitated using NIH image.
# T1 sequence (O55192 whole entry): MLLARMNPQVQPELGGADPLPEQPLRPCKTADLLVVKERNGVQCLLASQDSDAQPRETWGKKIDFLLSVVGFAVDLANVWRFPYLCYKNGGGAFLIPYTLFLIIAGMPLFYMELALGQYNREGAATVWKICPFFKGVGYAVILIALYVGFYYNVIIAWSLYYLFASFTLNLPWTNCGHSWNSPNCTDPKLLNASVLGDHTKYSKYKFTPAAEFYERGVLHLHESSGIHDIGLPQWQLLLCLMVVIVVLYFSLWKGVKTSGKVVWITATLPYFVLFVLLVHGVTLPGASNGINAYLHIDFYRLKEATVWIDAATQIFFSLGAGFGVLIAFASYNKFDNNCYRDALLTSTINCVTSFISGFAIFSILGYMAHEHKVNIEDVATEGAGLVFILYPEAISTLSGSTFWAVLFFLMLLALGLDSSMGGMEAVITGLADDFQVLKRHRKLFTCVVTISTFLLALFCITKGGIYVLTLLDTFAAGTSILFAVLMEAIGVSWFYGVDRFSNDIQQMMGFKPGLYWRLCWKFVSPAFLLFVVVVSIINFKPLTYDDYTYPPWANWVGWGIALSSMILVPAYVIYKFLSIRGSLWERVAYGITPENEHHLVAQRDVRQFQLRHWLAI
molecule,measurement,setting,value
"NC[C@H](O)c1ccc(O)c(O)c1 [NE, norepinephrine]",NE transport Vmax,NET [1]; KRH/EGTA,0.129+/−0.0129 pmol/mg protein/min
O=C(O)c1ccc2c3c1cccc3c(=O)n1c3ccccc3nc21 [STO-609],Effect on increase in NET current triggered by prior depolarization,NET [2],prevented the stimulation-elicited increase in NET currents
same,Effect on increase in NET current triggered by prior depolarization,NET [2]; listed as STO609,converted the stimulation-induced increase into a stimulation-elicited decrease in NET currents
same,Basal NE transport,NET [3],did not influence basal NE transport
same,Effect on Ca^2+-depletion elicited reduction of NET surface density,human NET [4]; CHO cells,prevented a loss of NET from the surface
same,Effect on Ca^2+-stimulated elevation of NET surface density,human NET [4]; CHO cells,completely blocked the increase in surface NET protein
CdCl2,Effect on increase in NET current triggered by prior depolarization,NET [2],prevented the increase in NET current
KN93,Depolarization triggered increase of surface NET density,NET [5],failed to increase surface NET density
same,Effect on increase in NET current triggered by prior depolarization,NET [2],prevented the stimulation-elicited increase in NET currents
same,NE transport in KRH/Ca^2+ after drug treatment,NET [1],inhibited NE transport
same,"NE transport after addition of Ca^2+, % of control","NET [1]; drug pre-treated synaptosomes, KRH/EGTA to KRH/Ca^2+ (2.2 mM final), 5 μM KN93",140.5+/−11.2%
same,"NE uptake when switched to KRH/EGTA, % of NE uptake in KRH/Ca^2+","NET [1]; drug pre-treated synaptosomes, 5 μM KN93",67.5+/−7.2%
same,Effect on reduction in NET activity on switch from KRH/Ca^2+ to KRH/EGTA,NET [1],blunted
same,Effect on elevation in NET activity triggered by addition of Ca^2+,NET [1],significantly blunted the elevation in NET activity
same,Basal NE transport,NET [3],able to suppress NE transport
same,Effect on Ca^2+-depletion elicited reduction of NET surface density,human NET [4]; CHO cells,blocked
same,Effect on Ca^2+-stimulated elevation of NET surface density,human NET [4]; CHO cells,blocked
"NET T30A: human NET with T30 mutated to alanine, HA-tagged",Recovery of NE transport after Ca^2+ depletion,human NET [6]; 15 min Ca^2+ restoration including 10 min transport assay,failed to recover NE transport activity
same,NE transport activity in KRH/Ca^2+,human NET [6]; transiently transfected CHO cells,equivalent to wild-type NET
same,Phosphorylation following Ca^2+ addition,human NET [7],no phosphorylation
same,Basal surface expression versus wildtype hNET,"human NET [4]; CHO cells, n=3",117+/−18.5%
same,Change of transporter surface density in response to Ca^2+ manipulations (addition or depletion),human NET [4],complete lack of Ca^2+ sensitivity
NET T30E: human NET mutant designed to mimic constitutive phosphorylation at T30,Change of transporter surface density in response to Ca^2+ manipulations (addition or depletion),human NET [4],failed to change
bisindolylmaleimide I [BIM],NE transport in KRH/Ca^2+ after drug treatment,NET [1],inhibited NE transport
same,Effect on reduction in NET activity on switch from KRH/Ca^2+ to KRH/EGTA,NET [1],failed to attenuate the loss of NET activity
same,Effect on elevation in NET activity triggered by addition of Ca^2+,NET [1],no ability to attenuate Ca^2+-stimulated NET activity
